In patent US10071082B2, “Antimicrobial agents” (Rutgers, The State University of New Jersey, priority 2013, dated 2018):
≈ marks a conversion by molar mass, not a printed value. Like-named read-outs stand apart in the source and are kept apart here.

Key:
[1] = tested on: MRSA; assay: Test A antibacterial assay, broth microdilution MIC; type: cell-based; conditions: Staphylococcus aureus, read-out: MIC MRSA
Description: (§1) Antibacterial activity can be determined as per Clinical and Laboratory Standards Institute (CLSI) guidelines using a broth microdilution assay in which log-phase bacteria are grown at 37° C. in appropriate medium containing two-fold serial dilutions of a compound to yield final concentrations ranging from 256 to 0.06 μg/mL. For determination of minimal inhibitory concentration (MIC) values, bacterial growth is monitored after 24 to 48 hours by measuring optical density at 600 nm.

[2] = tested on: MSSA; assay: as above; type: cell-based; conditions: Staphylococcus aureus, read-out: MIC MSSA
Description: as §1

[3] = MIC determined in the presence of 50% mouse serum
[4] = MIC values may be lower as solubility and aggregate formation may reduce observed activity

Compound	MIC [1] [µg/mL]	MIC [2] [µg/mL]	MIC [2, 3] [µg/mL]	MIC [1, 4] [µg/mL]	MIC [2, 4] [µg/mL]
CC(C)(C)C(=O)NC(=O)c1c(F)ccc(OCc2nc3cc(Cl)ccc3s2)c1F [Example 20]	4 (≈ 9.11 µM)	> 64	–	–	–
C/C(=N\C(=O)c1c(F)ccc(OCc2nc3cc(Cl)ccc3s2)c1F)N(C)C [Example 2a, 3-((5-Chlorobenzo[d]thiazol-2-yl)methoxy)-N-(1-(dimethylamino)ethylidene)-2,6-difluorobenzamide]	4 (≈ 9.44 µM)	2 (≈ 4.72 µM)	–	–	–
CN(C)/C=N/C(=O)c1c(F)ccc(OCc2nc3cc(Cl)ccc3s2)c1F [Example 1b, 3-((5-Chlorobenzo[d]thiazol-2-yl)methoxy)-N-((dimethylamino)methylene)-2,6-difluorobenzamide]	0.125 (≈ 0.305 µM)	0.125 (≈ 0.305 µM)	–	–	–
O=C(c1c(F)ccc(OCc2nc3cc(Cl)ccc3s2)c1F)N(C(=O)C(F)(F)F)C(=O)C(F)(F)F [Example 14]	–	–	2	–	–
CCCC(=O)NC(=O)c1c(F)ccc(OCc2nc3cc(Cl)ccc3s2)c1F [Example 6]	–	–	–	1 (≈ 2.35 µM)	0.5 (≈ 1.18 µM)
O=C(NC(=O)c1c(F)ccc(OCc2nc3cc(Cl)ccc3s2)c1F)c1c(Cl)ccnc1Cl [Example 18]	> 64	> 64	–	–	–
O=C(NC(=O)c1c(F)ccc(OCc2nc3cc(Cl)ccc3s2)c1F)c1ccccc1 [Example 9]	–	–	–	–	0.5 (≈ 1.09 µM)
O=C(Cn1ccnc1)NC(=O)c1c(F)ccc(OCc2nc3cc(Cl)ccc3s2)c1F [Example 12]	0.25 (≈ 0.54 µM)	0.125 (≈ 0.27 µM)	–	–	–
CN(C)/C=N/C(=O)c1c(F)ccc(OCc2nc3cc(Cl)cnc3s2)c1F [Example 3b, 3-((6-Chlorothiazolo[5,4-b]pyridin-2-yl)methoxy)-N-((dimethylamino)methylene)-2,6-difluorobenzamide]	1 (≈ 2.43 µM)	0.5 (≈ 1.22 µM)	–	–	–
O=CNC(=O)c1c(F)ccc(OCc2nc3cc(Cl)ccc3s2)c1F [Example 1]	0.125 (≈ 0.327 µM)	0.25 (≈ 0.653 µM)	–	–	–
CS(=O)(=O)NC(=O)c1c(F)ccc(OCc2nc3cc(Cl)ccc3s2)c1F [Example 15]	8 (≈ 18.5 µM)	8 (≈ 18.5 µM)	–	–	–
O=CNC(=O)c1c(F)ccc(OCc2nc3cc(Cl)cnc3s2)c1F [Example 3]	0.5 (≈ 1.3 µM)	0.5 (≈ 1.3 µM)	–	–	–
O=C(NC(=O)c1c(F)ccc(OCc2nc3cc(Cl)ccc3s2)c1F)c1ccc(CCl)cc1 [Example 13]	–	–	4	–	–
O=C(CCl)NC(=O)c1c(F)ccc(OCc2nc3cc(Cl)ccc3s2)c1F [Example 10]	0.25 (≈ 0.58 µM)	0.125 (≈ 0.29 µM)	–	–	–
O=C(NC(=O)c1c(F)ccc(OCc2nc3cc(Cl)ccc3s2)c1F)c1ccnc(Cl)c1Cl [Example 19]	4 (≈ 7.56 µM)	> 64	–	–	–
O=C(NC(=O)c1c(F)ccc(OCc2nc3cc(Cl)ccc3s2)c1F)Oc1ccccc1 [Example 32, Phenyl(3-((5-chlorobenzo[d]thiazol-2-yl)methoxy)-2,6-difluorobenzoyl)carbamate]	4 (≈ 8.42 µM)	4 (≈ 8.42 µM)	–	–	–
CC(=O)NC(=O)c1c(F)ccc(OCc2nc3cc(Cl)ccc3s2)c1F [Example 2]	4 (≈ 10.1 µM)	2 (≈ 5.04 µM)	–	–	–
CN1CCC(C(=O)NC(=O)c2c(F)ccc(OCc3nc4cc(Cl)ccc4s3)c2F)CC1 [Example 8]	0.5 (≈ 1.04 µM)	0.5 (≈ 1.04 µM)	–	–	–
O=C(NCO)c1c(F)ccc(OCc2nc3cc(Cl)ccc3s2)c1F [Example 16]	2 (≈ 5.2 µM)	2 (≈ 5.2 µM)	–	–	–
O=C(NC(=O)C1CCCCC1)c1c(F)ccc(OCc2nc3cc(Cl)ccc3s2)c1F [Example 7]	–	–	–	–	0.5 (≈ 1.08 µM)
CC(=O)NC(=O)c1c(F)ccc(OCc2nc3cc(Cl)cnc3s2)c1F [Example 4]	–	–	2	–	–
CC1CCN(CC(=O)NC(=O)c2c(F)ccc(OCc3nc4cc(Cl)ccc4s3)c2F)CC1 [Example 11]	1 (≈ 2.02 µM)	0.5 (≈ 1.01 µM)	–	–	–
C/C(=N\C(=O)c1c(F)ccc(OCc2nc3cc(Cl)cnc3s2)c1F)N(C)C [Example 4a, 3-((6-Chlorothiazolo[5,4-b]pyridin-2-yl)methoxy)-N-(1-(dimethylamino)ethylidene)-2,6-difluorobenzamide]	4 (≈ 9.41 µM)	4 (≈ 9.41 µM)	–	–	–

Results, then the molecule that gave them:

MIC [1] [µg/mL]	MIC [2] [µg/mL]	MIC [2, 3] [µg/mL]	MIC [1, 4] [µg/mL]	MIC [2, 4] [µg/mL]	Compound
> 64	> 64	–	–	–	CN1CCN(C(=O)NC(=O)c2c(F)ccc(OCc3nc4cc(Cl)ccc4s3)c2F)CC1 [Example 33]
4 (≈ 6.47 µM)	1 (≈ 1.62 µM)	–	–	–	CN1CCC(C(=O)NC(=O)c2c(F)ccc(OCc3nc(-c4ccc(OC(F)(F)F)cc4)c(Br)o3)c2F)CC1 [Example 46]
16 (≈ 25.3 µM)	1 (≈ 1.58 µM)	–	–	–	CN1CCC(C(=O)NC(=O)c2c(F)ccc(OC(CO)c3nc(-c4ccc(C(F)(F)F)cc4)c(Br)o3)c2F)CC1 (stereo not shown) [Example 42]
16 (≈ 26.5 µM)	2 (≈ 3.31 µM)	–	–	–	CN1CCC(C(=O)NC(=O)c2c(F)ccc(OCc3nc(-c4ccc(C(F)(F)F)cn4)c(Br)o3)c2F)CC1 [Example 49]
> 64	> 64	–	–	–	O=C(NC(=O)c1c(F)ccc(OCc2nc3cc(Cl)ccc3s2)c1F)c1c(Cl)cccc1Cl [Example 24]
8 (≈ 16.1 µM)	4 (≈ 8.04 µM)	–	–	–	CN1CCC(C(=O)NC(=O)c2c(Cl)ccc(OCc3nc4cc(Cl)cnc4s3)c2F)CC1 [Example 41]
4 (≈ 8.07 µM)	32 (≈ 64.5 µM)	–	–	–	CN1CCC(OC(=O)NC(=O)c2c(F)ccc(OCc3nc4cc(Cl)ccc4s3)c2F)CC1 [Example 34, 1-methylpiperidin-4-yl (3-((5-chlorobenzo[d]thiazol-2-yl)methoxy)-2,6-difluorobenzoyl)carbamate]
2 (≈ 4.15 µM)	0.25 (≈ 0.519 µM)	–	–	–	CN1CCN(C(=O)NC(=O)c2c(F)ccc(OCc3nc4cc(Cl)cnc4s3)c2F)CC1 [Example 35]
2 (≈ 4.23 µM)	> 64	–	–	–	O=C(Cc1ccccc1)NC(=O)c1c(F)ccc(OCc2nc3cc(Cl)ccc3s2)c1F [Example 21]
1 (≈ 1.8 µM)	0.0625 (≈ 0.112 µM)	–	–	–	CN1CCC(C(=O)NC(=O)c2c(F)ccc(OCc3nc(-c4ccc(OC(F)(F)F)cc4)ns3)c2F)CC1 [Example 47]
32 (≈ 61.7 µM)	8 (≈ 15.4 µM)	–	–	–	COc1cccc(COC(=O)NC(=O)c2c(F)ccc(OCc3nc4cc(Cl)ccc4s3)c2F)c1 [Example 29]
> 64	> 64	–	–	–	CC(=O)NC(=O)c1c(N2CCN(C)CC2)ccc(OCc2nc3cc(Cl)ccc3s2)c1F [Example 39]
2 (≈ 4.58 µM)	0.5 (≈ 1.14 µM)	–	–	–	O=C(NC(=O)C1CCC1)c1c(F)ccc(OCc2nc3cc(Cl)ccc3s2)c1F [Example 22]
2 (≈ 4.11 µM)	> 64	–	–	–	CC(C(=O)NC(=O)c1c(F)ccc(OCc2nc3cc(Cl)ccc3s2)c1F)c1ccccc1 (stereo not shown) [Example 23]
> 64	> 64	–	–	–	CNC(=O)NC(=O)c1c(F)ccc(OCc2nc3cc(Cl)ccc3s2)c1F [Example 51]
> 64	> 64	–	–	–	CC(=O)NC(=O)c1cccc(OCc2nc3cc(Cl)ccc3s2)c1 [Example 38]
2 (≈ 4.56 µM)	> 64	–	–	–	CCC(C)C(=O)NC(=O)c1c(F)ccc(OCc2nc3cc(Cl)ccc3s2)c1F (stereo not shown) [Example 25]
> 64	> 64	–	–	–	CN(C)C(=O)NC(=O)c1c(F)ccc(OCc2nc3cc(Cl)ccc3s2)c1F [Example 27]
2 (≈ 4.54 µM)	> 64	–	–	–	CC(C)OC(=O)NC(=O)c1c(F)ccc(OCc2nc3cc(Cl)ccc3s2)c1F [Example 30]
4 (≈ 8.99 µM)	> 64	–	–	–	O=C(NC(=O)c1c(F)ccc(OCc2nc3cc(Cl)ccc3s2)c1F)OCCF [Example 31]
64 (≈ 137 µM)	64 (≈ 137 µM)	–	–	–	CCC(=O)N(C(=O)CC)C(=O)c1c(F)ccc(OCc2nc3cc(Cl)ccc3s2)c1F [Example 43]
8 (≈ 18.3 µM)	8 (≈ 18.3 µM)	–	–	–	CC(C)c1csc(COc2ccc(F)c(C(=O)NC(=O)C3CCN(C)CC3)c2F)n1 [Example 48]
8 (≈ 14 µM)	> 64	–	–	–	CC(C)(C)c1cc(C(=O)NC(=O)c2c(F)ccc(OCc3nc4cc(Cl)ccc4s3)c2F)cc(C(C)(C)C)c1 [Example 37]
> 64	> 64	–	–	–	CC(=O)NC(=O)c1c(F)ccc(OCc2cccc(-c3ccc(C(C)(C)C)cc3)c2)c1F [Example 36]
8 (≈ 19.4 µM)	> 64	–	–	–	COC(=O)NC(=O)c1c(F)ccc(OCc2nc3cc(Cl)ccc3s2)c1F [Example 26]
8 (≈ 18.7 µM)	> 64	–	–	–	CCOC(=O)NC(=O)c1c(F)ccc(OCc2nc3cc(Cl)ccc3s2)c1F [Example 28]
4 (≈ 7.39 µM)	1 (≈ 1.85 µM)	–	–	–	CN1CCC(C(=O)NC(=O)c2c(F)ccc(OCc3nc(-c4ccc(C(F)(F)F)cn4)ns3)c2F)CC1 [Example 50]
2 (≈ 4.55 µM)	> 64	–	–	–	CCC(C)C(=O)NC(=O)c1c(F)ccc(OCc2nc3cc(Cl)cnc3s2)c1F (stereo not shown) [Example 40]
